Reference: US20240400553A1, “AMINE BASED MATRIPTASE 2 INHIBITORS AND USES THEREOF” (Disc Medicine, Inc., priority 2023, published 2024)

What follows are molecules tested against T1, Human Recombinant Matriptase 2 (Homo sapiens, UniProt Q8IU80) (assay: Matriptase 2 inhibition, fluorescence based assay (Method I)). Conditions: Table A; Ki of Matriptase-2; read-out: Mat-2 Ki.
T1 construct: made in house
T1 sequence (Q8IU80 1-811): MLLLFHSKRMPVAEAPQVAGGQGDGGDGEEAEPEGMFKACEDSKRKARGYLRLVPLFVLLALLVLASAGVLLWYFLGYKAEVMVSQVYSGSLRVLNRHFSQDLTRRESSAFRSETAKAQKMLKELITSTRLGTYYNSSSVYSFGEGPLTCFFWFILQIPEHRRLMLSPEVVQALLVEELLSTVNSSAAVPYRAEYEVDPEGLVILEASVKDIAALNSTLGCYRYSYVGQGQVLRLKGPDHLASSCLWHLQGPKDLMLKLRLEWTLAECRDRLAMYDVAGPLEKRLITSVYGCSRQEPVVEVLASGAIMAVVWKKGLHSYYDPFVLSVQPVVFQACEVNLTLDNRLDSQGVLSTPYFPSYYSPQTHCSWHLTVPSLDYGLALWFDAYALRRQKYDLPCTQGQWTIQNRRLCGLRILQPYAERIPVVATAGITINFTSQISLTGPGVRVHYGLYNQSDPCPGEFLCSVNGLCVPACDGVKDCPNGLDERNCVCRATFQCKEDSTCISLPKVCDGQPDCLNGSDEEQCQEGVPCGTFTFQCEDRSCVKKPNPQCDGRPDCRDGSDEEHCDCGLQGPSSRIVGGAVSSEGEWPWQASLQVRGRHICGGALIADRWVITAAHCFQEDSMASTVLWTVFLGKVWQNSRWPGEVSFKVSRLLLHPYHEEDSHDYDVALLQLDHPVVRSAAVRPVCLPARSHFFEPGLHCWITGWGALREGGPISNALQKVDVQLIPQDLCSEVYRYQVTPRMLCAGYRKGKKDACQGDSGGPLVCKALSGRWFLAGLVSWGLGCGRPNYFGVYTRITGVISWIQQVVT
Format: biochemical
In short: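 Fluorogenic readout (Ex 360/Em 480 nm) taken 60 min after adding 62 μM Boc-Gln-Ala-Arg-AMC, following 30-min enzyme–compound preincubation at 25 °C. Conditions: 3.5 nM in-house enzyme, pH 7.5 Tris/NaCl/gelatin buffer, 1% DMSO; percent inhibition versus concentration fitted by variable-slope sigmoidal regression.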

Row | Compound | Ki
1 | COCCN1CCC(COC(=O)c2cc3ccc(CN)nc3n2Cc2cc(NS(=O)(=O)Cc3c(C)cccc3C)cc3ccccc23)CC1 [Compound 192, [1-(2-methoxyethyl)-piperidin-4-yl]methyl 6-(aminomethyl)-1-({3-[(2,6-dimethylphenyl)-methanesulfonamido]-naphthalen-1-yl}meth-yl)-1H-pyrrolo[2,3-b]-pyridine-2-carboxylate] | ≤ 100 nM
2 | NCc1ccc2cc(C(=O)O)n(Cc3cc(NS(=O)(=O)CC[C@@H]4CCCN4)cc4ccccc34)c2n1 [Compound 1, (S)-6-(aminomethyl)-1-((3-((2-(pyrrolidin-2-yl)ethyl)sulfonamido)naphthalen-1-yl)methyl)-1H-pyrrolo[2,3-b]pyridine-2-carboxylic acid] | ≤ 100 nM
3 | NCc1ccc2cc(C(=O)OC[C@H]3CNCCO3)n(Cc3cc(NS(=O)(=O)Cc4ccsc4)cc4ccccc34)c2n1 [Compound 170, [(2R)-morpholin-2-yl]-methyl 6-(aminomethyl)-1-({3-[(thiophen-3-yl)-methanesulfonamido]-naphthalen-1-yl}meth-yl)-1H-pyrrolo[2,3-b]-pyridine-2-carboxylate] | ≤ 100 nM
4 | NCc1ccc2cc(C(=O)O)n(Cc3cc(NS(=O)(=O)[C@H](F)c4ccccc4)cc4ccccc34)c2n1 (racemic) [Compound 98, 6-(aminomethyl)-1-({3-[fluoro(phenyl)methane-sulfonamido]naphthalen-1-yl}methyl)-1H-pyr-rolo[2,3-b]pyridine-2-carboxylic acid] | 100 to 500 nM

The next lines start with the values.

Row | Ki | Compound
5 | 100 to 500 nM | NCc1ccc2cc(C(=O)OCc3ccccn3)n(Cc3cc(NS(=O)(=O)Cc4ccccc4)cc4ccccc34)c2n1 [Compound 85, (pyridin-2-yl)methyl 6-(aminomethyl)-1-{[3-(phenylmethanesulfon-amido)naphthalen-1-yl]-methyl}-1H-pyrrolo[2,3-b]pyridine-2-carboxylate]
6 | ≤ 100 nM | CN1CCC[C@H](COC(=O)c2cc3ccc(CN)nc3n2Cc2cc(NS(=O)(=O)Cc3ccccc3)cc3ccccc23)C1 (racemic) [Compound 24, (1-methylpiperidin-3-yl)methyl 6-(amino-methyl)-1-{[3-(phenyl-methanesulfonamido)-naphthalen-1-yl]methyl}-1H-pyrrolo[2,3-b]pyr-idine-2-carboxylate]
7 | ≤ 100 nM | CN(C)CCOC(=O)c1cc2ccc(CN)nc2n1Cc1cc(NS(=O)(=O)Cc2ccccc2)cc2ccccc12 [Compound 49, 2-(dimethylamino)ethyl 6-(aminomethyl)-1-{[3-(phenylmethanesulfon-amido)naphthalen-1-yl]-methyl}-1H-pyrrolo[2,3-b]pyridine-2-carboxylate]
8 | ≤ 100 nM | NCc1ccc2cc(C(=O)OC[C@H]3COCCN3)n(Cc3cc(NS(=O)(=O)Cc4ccccc4)cc4ccccc34)c2n1 [Compound 22, [(3R)-morpholin-3-yl]-methyl 6-(aminomethyl)-1-{[3-(phenylmethane-sulfonamido)naphthalen-1-yl]methyl}-1H-pyr-rolo[2,3-b]pyridine-2-carboxylate]
9 | ≤ 100 nM | NCc1ccc2cc(C(=O)OCCOCCN3CCCCC3)n(Cc3cc(NS(=O)(=O)Cc4ccccc4)cc4ccccc34)c2n1 [Compound 56, 2-[2-(piperidin-1-yl)-ethoxy]ethyl 6-(amino-methyl)-1-{[3-(phenyl-methanesulfonamido)-naphthalen-1-yl]methyl}-1H-pyrrolo[2,3-b]pyr-idine-2-carboxylate]
10 | 100 to 500 nM | Cc1oc(=O)oc1COC(=O)c1cc2ccc(CN)nc2n1Cc1cc(NS(=O)(=O)Cc2ccccc2)cc2ccccc12 [Compound 88, (5-methyl-2-oxo-2H-1,3-dioxol-4-yl)methyl 6-(aminomethyl)-1-{[3-(phenylmethanesulfon-amido)naphthalen-1-yl]-methyl}-1H-pyrrolo[2,3-b]pyridine-2-carboxylate]
11 | 100 to 500 nM | NCc1ccc2cc(C(=O)OCCN3CCOC3=O)n(Cc3cc(NS(=O)(=O)Cc4ccccc4)cc4ccccc34)c2n1 [Compound 130]
12 | ≤ 100 nM | CN(C)CCCOC(=O)c1cc2ccc(CN)nc2n1Cc1cc(NS(=O)(=O)Cc2ccccc2)cc2ccccc12 [Compound 47, 3-(dimethylamino)prop-yl 6-(aminomethyl)-1-{[3-(phenylmethane-sulfonamido)naphthalen-1-yl]methyl}-1H-pyr-rolo[2,3-b]pyridine-2-carboxylate]

Same assay, conditions: Table A; Ki of Matriptase-2 given as class symbols; read-out: Mat-2 Ki

Row | Compound | Ki
13 | Cc1cccc(C)c1CS(=O)(=O)Nc1cc(Cn2c(C(=O)OCCN3CCOCC3)cc3ccc(CN)nc32)c2ccccc2c1 [Compound 199, 2-(morpholin-4-yl)ethyl 6-(aminomethyl)-1-({3-[(2,6-dimethylphenyl)-methanesulfonamido]-naphthalen-1-yl}meth-yl)-1H-pyrrolo[2,3-b]-pyridine-2-carboxylate] | 100 to 500 nM
14 | CN1CCC[C@H]1CCS(=O)(=O)Nc1cc(Cn2c(C(=O)O)cc3ccc(CN)nc32)c2ccccc2c1 [Compound 235, 6-(aminomethyl)-1-[(3-{2-[(2S)-1-methylpyr-rolidin-2-yl]ethanesul-fonamido}naphthalen-1-yl)methyl]-1H-pyrrolo-[2,3-b]pyridine-2-car-boxylic acid] | 100 to 500 nM
15 | COCCN1CCN(C(=O)Nc2cc(Cn3c(C(=O)O)cc4ccc(CN)nc43)c3ccccc3c2)CC1 [Compound 288, 6-(aminomethyl)-1-((3-(4-(2-methoxyethyl)piperazine-1-carboxamido)naphthalen-1-yl)methyl)-1H-pyrrolo[2,3-b]pyridine-2-carboxylic acid] | 100 to 500 nM
16 | C[C@H]1CCC(C)(C)N1C(=O)Nc1cc(Cn2c(C(=O)O)cc3ccc(CN)nc32)c2ccccc2c1 (racemic) [Compound 302, rac-6-(aminomethyl)-1-[(3-{[(SR)-2,2,5-trimeth-ylpyrrolidine-1-carbon-yl]amino}naphthalen-1-yl)methyl]-1H-pyrrolo-[2,3-b]pyridine-2-carbox-ylic acid] | 500 to 3000 nM
17 | NCc1ccc2cc(C(=O)O)n(Cc3cc(NS(=O)(=O)Cc4ccccc4F)cc4ccccc34)c2n1 [Compound 227, 6-(aminomethyl)-1-({3-[(2-fluorophenyl)meth-anesulfonamido]naph-thalen-1-yl}methyl)-1H-pyrrolo[2,3-b]pyridine-2-carboxylic acid] | 100 to 500 nM
18 | NCc1ccc2cc(C(=O)O)n(Cc3cc(NS(=O)(=O)Cc4ccccc4C(F)(F)F)cc4ccccc34)c2n1 [Compound 225, 6-(aminomethyl)-1-[(3-{[2-(trifluoromethyl)-phenyl]methanesulfon-amido}naphthalen-1-yl)methyl]-1H-pyrrolo-[2,3-b]pyridine-2-car-boxylic acid] | 100 to 500 nM
19 | NCc1ccc2cc(C(=O)O)n(Cc3cc(NS(=O)(=O)CCCn4cnnn4)cc4ccccc34)c2n1 [Compound 264, 6-(aminomethyl)-1-({3-[3-(1H-1,2,3,4-tetrazol-1-yl)propanesulfonamido]-naphthalen-1-yl}methyl)-1H-pyrrolo[2,3-b]pyr-idine-2-carboxylic acid] | 100 to 500 nM
20 | CC1(C)CCN(C(=O)Nc2cc(Cn3c(C(=O)O)cc4ccc(CN)nc43)c3ccccc3c2)CC1 [Compound 296, 6-(aminomethyl)-1-({3-[(4,4-dimethylpiperidine-1-carbonyl)amino]naph-thalen-1-yl}methyl)-1H-pyrrolo[2,3-b]pyridine-2-carboxylic acid] | 500 to 3000 nM
21 | Cc1cccc(C)c1CS(=O)(=O)Nc1cc(Cn2c(C(=O)OCC3CCN(C=O)CC3)cc3ccc(CN)nc32)c2ccccc2c1 [Compound 198, (1-formylpiperidin-4-yl)-methyl 6-(aminomethyl)-1-({3-[(2,6-dimethyl-phenyl)methanesulfon-amido]naphthalen-1-yl}-methyl)-1H-pyrrolo[2,3-b]pyridine-2-carboxylate] | ≤ 100 nM
22 | Cc1ccccc1CS(=O)(=O)Nc1cc(Cn2c(C(=O)O)cc3ccc(CN)nc32)c2ccccc2c1 [Compound 212, 6-(aminomethyl)-1-({3-[(2-methylphenyl)meth-anesulfonamido]naph-thalen-1-yl}methyl)-1H-pyrrolo[2,3-b]pyridine-2-carboxylic acid] | ≤ 100 nM

Same assay, conditions: Table B; Human Recombinant Matriptase 2, 3.5 nM enzyme, 62 μM substrate, 30 mins preincubation; read-out: Mean Ki

Row | Compound | Ki
23 | CNC12CC(COC(=O)c3cc4ccc(CN)nc4n3Cc3cc(NS(=O)(=O)Cc4c(C)cccc4C)cc4ccccc34)(C1)C2 [Compound 2.34] | ≤ 100 nM
24 | Cn1ccnc1CCOC(=O)c1cc2ccc(CN)nc2n1Cc1cc(NS(=O)(=O)Cc2ccsc2)cc2ccccc12 [Compound 2.29] | ≤ 100 nM
25 | CN1CCC(C(OC(=O)c2cc3ccc(CN)nc3n2Cc2cc(NS(=O)(=O)Cc3ccccc3)cc3ccccc23)C2CC2)CC1 (stereo not shown) [Compound 2.33] | ≤ 100 nM
